These results are taken from patent US9447083B2, “N-acylhydrazone derivatives for selective T cell inhibitor and anti-lymphoid malignancy drug” (CHONG KUN DANG PHARMACEUTICAL CORP., priority 2012, dated 2016).

Each structure is given as a SMILES string. Where two headings read alike, the source gives them in different places.

Experiment [1] deals with acute graft-versus-host disease. Description: Acute graft-versus-host disease, mouse model of allogeneic bone marrow transplantation. The class given is in vivo. The settings on record: 25 mg/kg intraperitoneally daily for 10 days. From the text: Lymph nodes, spleens, both femurs and tibias were aseptically collected from normal C57BL/6 mice (8-12 week old, female, 20-23 g), and T cells were isolated from the lymph nodes and spleens in the same manner as described in Experimental Example 2 and were re-suspended in PBS at a concentration of 8×10^7 cells/mL. The femurs and tibias were cut at the ends, and the bone marrow was flushed from femurs and tibias with RPMI medium using a syringe (21G for femur and 26G for tibia) to extract the marrow, which was then suspended and passed through a cell strainer to make a single cell suspension. The bone marrow cell suspension was centrifuged at 1200 rpm for 5 minutes, and the supernatant was removed, then the cells were added to 1 mL of ACK lysis buffer and vortexed for 1 minute, followed by washing with RPMI medium. […] The incubated cell suspension was added with 5 mL of MACS buffer, centrifuged for 5 minutes, washed, and then re-suspended in 2 mL of MACS buffer. The suspended cells were placed in the autoMACS Pro Separator, and T cells bound to the CD90.2 microbeads were removed. The separated T cell-depleted bone marrow cells (TCD-BM) were washed with PBS and re-suspended in PBS at a concentration of 1×10^8 cells/mL. Normal BDF1 mice (10-12 week old, female, 20-23 g) were irradiated with 850 rad of γ radiation using an irradiator, and then 100 μL of a graft obtained by mixing the C57BL/6 mouse T cells and the TCD-BM at a ratio of 1:1 was injected into the tail vein of the BDF1 mice. In a group treated with compound 229 of the present invention, compound 229 was completely dissolved in a Cremophor EL-ethanol mixture (1:1, v/v) in an amount corresponding to 15% (v/v) of the administration volume, after which the compound solution was diluted in PBS, and the dilution was administered intraperitoneally to each mouse at a dose of 25 mg/kg daily for 10 days from the day of the graft injection. Meanwhile, Tacrolimus that is a currently clinically used immunosuppressive agent was administered to mice of another group in the same amount as compound 229 in order to compare the inhibitory effect on acute graft-versus-host disease, and mice of a vehicle control group were administered with 200 μL of a Cremophor EL-ethanol-PBS (7.5:7.5:85, v/v/v) in the same manner as the treated groups. Then, the survival of mice was monitored daily, and the severity of GVHD was assessed twice a week with clinical GVHD scoring system for each a decrease in weight loss, hunched posture, decreased activity, fur ruffling and skin lesions. Each parameters were scored on a 3-point (0 to 2) scale.

A further experiment concerns Jurkat T cells. Description: Pro-apoptotic activity on Jurkat T cells (FITC-Annexin V / 7-AAD flow cytometry). The settings on record: Homo sapiens, 72 hours, cells stained with FITC-Annexin V and 7-AAD among total cells. The class given is cell-based. The method, boiled down:
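Jurkat cells at 1.5×10^5 cells/mL in RPMI/10% FBS treated with compounds at […] or 5 μM final for 72 h at 37° C, vehicle containing 1% DMSO. Stained with FITC-Annexin V and 7-AAD for 15 min at room temperature in pH 7.4 Hepes binding buffer. Apoptosis = % double-stained cells by flow cytometry.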
(In general: A flow cytometer gives signals particle by particle.)

Experiment [2] deals with Experimental Autoimmune Encephalomyelitis (EAE). Description: Experimental Autoimmune Encephalomyelitis (EAE) model of multiple sclerosis. The class given is in vivo, mouse. The settings on record: 1 mg/kg orally daily from 17 to 37 days. As for the experimental part:
At the first day of induction, myelin oligodendrocyte glycoprotein35-55 (MOG35-55, Peptron) (200 ug), mycobacterium tuberculosis (Difco, Cat No. 231141) (500 μg) and complete Freund's adjuvant (Sigma Aldrich, Cat No. F5506) were mixed with each other and immersed for 5 minutes. 0.1 mL of the immersed peptide was injected subcutaneously into both the flanks of each of C57BL/6 mice (9 week old, female, 18±2 g), followed by that […] pertussis toxin (Sigma Aldrich, Cat No. P2980) (200 ng) was injected by intravenously. At 2 days, the same amount of pertussis toxin was administered intravenously. Whether the immersion leaked from the injected portion of the mice was checked, and whether EAE was induced was also examined by visual observation from 7 days.
Compound 229 and Fingolimod that is currently clinically used for the treatment of multiple sclerosis were completely dissolved in a Cremophor EL-ethanol mixture (1:1, v/v) in an amount corresponding to 7.5% (v/v) of the administration volume, and the compound solution was diluted in PBS. The two groups of the mice were administered orally with 200 μL of the diluted solution of compound 229 at each doses of 25 and 50 mg/kg separately, and the third group of the mice was administered orally with 200 μL of the diluted solution of fingolimode at a dose of 1 mg/kg on a daily basis from 17 days to 37 days (for total 21 times) after starting of the experiment. In a vehicle control group, 200 μL of a Cremophor EL-ethanol-PBS mixture (3.75:3.75:92.5, v/v/v) was administered to each mouse in the same manner as the treated group. The index of EAE was recorded daily based on visual observation using a severity index system (6-point (0 to 5) scale) from 7 days of the experiment. The symptoms of multiple sclerosis were evaluated based on the following criteria:
2: limp tail and hind limb weakness;
4: hind limb paralysis and forelimb weakness; and […]

The mark [3] stands for this setting: read-out: Cell Apoptosis Effect to Jurkat T Cell (% in 5 μM).
Setting [4] is: read-out: Jurkat T Cell Apoptosis (% in 5 μM).

`C=CC[C@@H]1/C=C(\C)C[C@H](C)C[C@H](OC)[C@H]2O[C@@](O)(C(=O)C(=O)N3CCCC[C@H]3C(=O)O[C@H](/C(C)=C/[C@@H]3CC[C@@H](O)[C@H](OC)C3)[C@H](C)[C@@H](O)CC1=O)[C@H](C)C[C@@H]2OC` [Tacrolimus, reference compound]: in experiment [1], the “severity of GVHD (clinical scoring system)” value was “ruffled fur and severe skin lesions”. Further, the survival rate in experiment [1] (final (day 70), vehicle 10%) is recorded as 50%. Also, in experiment [1] (vehicle from 29 days), the “mouse death, days after cell transplantation” value is listed as at least 23 days.

`Cc1cc(C)c(OCC(=O)N(CO)/N=C/c2ccc3cc[nH]c3c2)c(C)c1` [Compound 233, (E)-N′-((1H-indol-6-yl)methylene)-N-(hydroxymethyl)-2-(mesityloxy)acetohydrazide]: in the experiment with Jurkat T cells (setting [3]), the cytotoxicity at 5 µM worked out at 100%.

As to `Cc1cc(C)c(OCC(=O)N/N=C/c2ccc3cc[nH]c3c2)c(-c2ccoc2)c1` [Compound 218, (E)-N′-((1H-indol-6-yl)methylene)-2-(2-(furan-3-yl)-4,6-dimethylphenoxy)acetohydrazide], the cytotoxicity at 5 µM in the experiment with Jurkat T cells (setting [3]) came to 100%.

For `Cc1cc(N)cc(C)c1OCC(=O)N/N=C/c1cccc2[nH]ccc12` [Compound 232, (E)-N′-((1H-indol-4-yl)methylene)-2-(4-amino-2,6-dimethylphenoxy)acetohydrazide], the cytotoxicity at 5 µM in the experiment on Jurkat T cells (setting [3]) stood at 100%.

With `O=C(COc1cccc(-c2cccnc2)c1)N/N=C/c1ccc2cc[nH]c2c1` [Compound 359], in the experiment with Jurkat T cells (setting [4]), the cytotoxicity at 5 µM was 80%.

For the molecule `O=C(COc1cccnc1-c1ccsc1)N/N=C/c1ccc2cc[nH]c2c1` [Compound 343, (E)-N′-((1H-indol-6-yl)methylene)-2-((2-(thiophen-3-yl)pyridin-3-yl)oxy)acetohydrazide], in the experiment with Jurkat T cells (setting [4]), the cytotoxicity at 5 µM is 100%.

As to `Cc1cccc(OCC(=O)N/N=C/c2cccc3[nH]ccc23)c1C` [Compound 326, (E)-N′-((1H-indol-4-yl)methylene)-2-(2,3-dimethylphenoxy)acetohydrazide], the cytotoxicity at 5 µM in the experiment with Jurkat T cells (setting [4]) stood at 95%.

Consider `Cc1cc(C)c(OCC(=O)N(C)/N=C/c2cccc3c2ccn3C)c(C)c1` [Compound 164, (E)-2-(mesityloxy)-N-methyl-N′-((1-methyl-1H-indol-4-yl)methylene)acetohydrazide], for which the cytotoxicity at 5 µM in the experiment on Jurkat T cells (setting [3]) came out at 100%.

`Cc1cc(C)c(OCC(=O)N(COC(=O)c2ccc(CN3CCOCC3)cc2)/N=C/c2ccc3cc[nH]c3c2)c(C)c1` [Compound 272, (E)-(2-((1H-indol-6-yl)methylene)-1-(2-(mesityloxy)acetyl)hydrazinyl)methyl 4-(morpholinomethyl)benzoate]: the cytotoxicity at 5 µM with Jurkat T cells (setting [4]) stood at 100%.

Turning to `COc1ccc(OCC(=O)N/N=C/c2ccc3cc[nH]c3c2)c(C(C)(C)C)c1` [Compound 303], the cytotoxicity at 5 µM in the experiment with Jurkat T cells (setting [4]) was 100%.

`Cc1cccc(C)c1OCC(=O)N/N=C/c1ccc2cc[nH]c2c1` [Compound 258, (E)-N′-((1H-indol-6-yl)methylene)-2-(2,6-dimethylphenoxy)acetohydrazide]: in the experiment with Jurkat T cells (setting [3]), the cytotoxicity at 5 µM was determined as 100%.

`Cc1cc(C(N)=O)cc(C)c1OCC(=O)N/N=C/c1ccc2cc[nH]c2c1` [Compound 239]: the cytotoxicity at 5 µM in the experiment with Jurkat T cells (setting [3]) is 100%.

For `Cc1ncccc1OCC(=O)N/N=C/c1cccc2[nH]ccc12` [Compound 187, (E)-N′-((1H-indol-4-yl)methylene)-2-((2-methylpyridin-3-yl)oxy)acetohydrazide], the cytotoxicity at 5 µM with Jurkat T cells (setting [3]) was found to be 100%.

Turning to `Cc1cc(C)c(OCC(=O)N/N=C/c2cccc3[nH]ccc23)c(Br)c1` [Compound 259, (E)-N′-((1H-indol-4-yl)methylene)-2-(2-bromo-4,6-dimethylphenoxy)acetohydrazide], in the experiment on Jurkat T cells (setting [4]), the cytotoxicity at 5 µM worked out at 100%.

Consider `CCCCCCCCc1ccc(CCC(N)(CO)CO)cc1` [Fingolimod, reference compound], for which the “severity index (EAE, 0 to 5 scale)” value is 3±1 in experiment [2] (at 17 days (start of administration)); 1.5±0.5 in experiment [2] (at 39 days, vehicle 2.5±0.75); 2.7±0.25 in experiment [2] (at 101 days, vehicle 2.33±0.25).

`Cc1cccc(-c2ccoc2)c1OCC(=O)N/N=C/c1cccc2[nH]ccc12` [Compound 314, (E)-N′-((1H-indol-4-yl)methylene)-2-(2-(furan-3-yl)-6-methylphenoxy)acetohydrazide]: the cytotoxicity at 5 µM in the experiment with Jurkat T cells (setting [4]) is 100%.

In the case of `Cc1cc(Cl)cc(C)c1OCC(=O)N/N=C/c1ccc2cc[nH]c2c1` [Compound 157, (E)-N′-((1H-indol-6-yl)methylene)-2-(4-chloro-2,6-dimethylphenoxy)acetohydrazide], the cytotoxicity at 5 µM in the experiment on Jurkat T cells (setting [3]) is 100%.

As for `Cc1cc(C)c(NCC(=O)N/N=C/c2cccc3[nH]ccc23)c(C)c1` [Compound 135, (E)-N′-((1H-indol-4-yl)methylene)-2-(mesitylamino)acetohydrazide], the cytotoxicity at 5 µM with Jurkat T cells (setting [3]) came out at 100%.
